From patent US5498601A, “Platelet aggregation-inhibiting peptides” (Nippon Steel Corporation, priority 1992, dated 1996)
Residues, ends and D or L forms follow the SMILES beside them. *: point of attachment. X1 = O=C(c1cc(=O)[nH]c(=O)[nH]1)*

Columns and labels:
[1] = test system: human platelets
Procedure: (§4) Immediately after the blood collection, the syringe was stirred gently to mix the blood with the sodium citrate solution. The mixed blood was centrifuged (1100 rpm, 250 g) at room temperature for 15 minutes and the rotation was stopped without applying the brake. Then, the supernatant was collected with a pipette to obtain a platelet fraction. The remaining blood was further centrifuged (3000 rpm, 1000 g). The supernatant was collected to obtain platelet-poor plasma and stored.
(§5) The platelet fraction was placed in a polypropylene test tube, which was capped with a membrane filter to ensure breathability. Then, the test tube was placed on a shaker and stored at room temperature while shaking through vibrational amplitude of 20 cm at a frequency of 2 Hz. All the operations were performed under aseptic conditions to prevent the proliferation of bacteria during the storage.
(§6) After the storage for a given period of time, an aliquot of the platelet fraction was sampled and the number of platelets was measured. Prostaglandin E1 (Sigma Co.) was added to give a final concentration of 20 μg/ml and centrifuged at 750 g for 10 minutes. The supernatant was removed and the remainder was washed twice with HEPES-Tyrode's buffer containing prostaglandin E1 to remove the protected peptide. Finally, the platelets were suspended in preliminarily stored platelet-poor plasma. After the incubation for a given period of time, the aggregation ability of the platelets was determined by the method described above.

[2] = test system: B16F10 melanoma cells; test: adhesion of B16F10 melanoma cells to extracellular matrix protein adsorbed plates; format: cell-based
Procedure: (§1) (1) Using type 1 collagen (Iwaki Glass, type I-c), type 4 collagen (Iwaki Glass, type IV), fibronectin (human-origin, Iwaki Glass), vitronectin (human-origin, Iwaki Glass) and laminin (mouse […] sarcoma-origin, Iwaki Glass) as extracellular matrix proteins, experiments were performed to examine cell adhesion to a plastic plate on which those ectracellular matrix proteins had been adsorbed.
(§2) Each of the collagens was diluted with saline (adjusted to pH 3.0 with hydrochloric acid) to prepare a dilution at a concentration of 100 μg/ml for use in adsorption. The remaining three proteins were diluted with PBS of pH 7.4 to prepare dilutions at a concentration of 20 μg/ml for further use. […]
(§3) After the incubation for one hour according to the method described above, all the liquid present in each well was removed and the wells were washed three times with PBS to remove non-adherent cells. […] The concentration of methylene blue releasing from the cells was determined by a spectrophotometer on the basis of absorbance at 600 nm measured. In this measurement system, the number of cells adhering to the extracellular matrix proteins is proportional to the absorbance at 600 nm and therefore can be measured with precision.

[3] = test system: platelet aggregation; test: intravenous injection in beagle, platelet aggregation of PRP measured over time; format: in vivo; settings: 5 mg/Kg i.v.
Procedure: (1) In order to examine how long the peptides of the present invention and heparin, which is used as an anticoagulant at present, can remain without being broken down or eliminated and how long the activity of them persists, intravenous injection experiments were carried out using beagles.
Since the peptides of the present invention have the platelet aggregation-inhibiting activity, the amount of the peptides which remain in the body of an organism without being broken down can be determined by collecting blood and measuring the platelet aggregation-inhibiting activity of the blood at given intervals of time. Thus, the in vivo stability of the peptides can be estimated.
In the experiments, a male beagle having a body weight of 10 Kg was used. […] The collected blood was centrifuged at 1000 rpm for 10 minutes to prepare platelet-rich plasma (PRP). The reminder was further centrifuged at 3000 rpm for 15 minutes to prepare platelet-poor plasma (PPP).
The platelet aggregation ability was determined by measuring the platelet aggregation of the PRP with collagen and ADP using an aggregometer. In the measurement, ADP was added at a final concentration of 7.5 and 10.0 μM and collagen was added at a final concentration of 7.5 and 10.0 μg/ml.

[4] = test system: blood coagulation in the dialysis circuit; test: extracorporeal circulation (artificial dialysis) model using a beagle; format: in vivo
Procedure: In order to confirm that the peptides of the present invention have the action of inhibiting blood coagulation in an extracorporeal circulation system, experiments were carried out on an artificial dialysis model using a beagle which is one of extracorporeal circulation models (see Hamano et al., Thromb. Res. 55 (1989) 438-449).
In the experiments, beagles weighing about 10-12 Kg were used. The beagles were anesthetized with pentobarbital (about 30 mg/Kg) and the right hind leg was incised to expose the femoral artery and femoral vein. Cannulas were inserted into the exposed femoral artery and femoral vein and connected to the artificial dialyzator for experiments (Kuraray, Osaka, Japan) having a circuit configuration as shown in FIG. 5. A hollow-fiber dialyzer (RENAK-A, RA-04, 0.4 m^2, Kawasumi Laboratories, Tokyo) was used. A pump for blood was placed between the femoral artery and the dialyzator and operated to keep the blood flow rate at 25 ml/min in the extracorporeal circulation system during the experiments.
The following three parameters were measured in the experiments: 1 the pressure in the up-stream portion of the dialyzer (perfusion pressure), 2 the percent platelet adhesion and 3 the whole blood coagulation time. The pressure under 1 was measured by a pressure gauge incorporated in the upper stream portion of the dialyzator in the dialysis circuit as shown in FIG. 5. Since at the site of dialyzer blood often experiences contacts with foreign materials and blood flows in a narrow space, blood coagulation is most likely to occur at this site in the dialysis circuit. If blood coagulation occurs there, the dialyzer is clogged and the blood pressure in the up-stream portion will increase. The change in the perfusion pressure at this site indicates the degree of blood coagulation in the dialysis circuit. In connection with parameters2 and 3, an aliquot of blood was sampled at the inlet and outlet of the dialysis part at given intervals of time to measure 2 and 3 by conventional methods. Parameters 2 and 3 indicate how the function of platelets and that of blood coagulation (the degree of activation), respectively, change with the progress of the experiments.
The experiments began with a continuous injection of a solution of the peptide of the present invention in saline from the arterial side (or the inlet side of the dialysis circuit) immediately after the circuit set-up. The amount of injection was 10 mg/dog or 30 mg/dog and the total amount was gradually injected over 1 hour (injection rate: 1 ml/min). In a control, only saline was continuously injected in the same manner. The injection of the drug was stopped after 60 minutes and blood was thereafter circulated up to 180 minutes to continue the measurement of the above parameters. […]

[5] = test system: Hela cells; test: adhesion of HeLa cells to extracellular matrix protein adsorbed plates; format: cell-based
Procedure: as §1, §2, §3

[6] = test system: human platelets; test: protection of human platelet fraction during storage
Procedure: as §4, §5, §6

[7] = test system: platelet aggregation; settings: 400 μM; cited from earlier work
[8] = type 1 collagen, type 4 collagen, fibronectin, vitronectin
[9] = during the continuous injection of the drug

With `NC(N)=NCCC[C@H](N)C(=O)NCC(=O)N[C@@H](CC(=O)O)C(=O)N[C@@H](CO)C(=O)O` [Comparative Example 1, Arg--Gly--Asp--Ser--OH] the “stability when added to a platelet fraction” value [1] was “broken down in several hours”.
In the case of `N=C(N)NCCC[C@H](NC(=O)[C@H](CO)NC(=O)c1cc(=O)[nH]c(=O)[nH]1)C(=O)NCC(=O)N[C@@H](CC(=O)O)C(=O)N[C@@H](Cc1c[nH]c2ccccc12)C(=O)O` [Example 9, Orotyl--Ser--Arg--Gly--Asp--Trp--OH] (X1-SRGDW-OH), the “effect on cell adhesion to laminin” value ([2]; laminin) is reported as “scarcely any effect”, the “cell adhesion to the other extracellular matrix proteins” value [2, 8] is reported as “inhibited depending on the concentration” and the “platelet aggregation time course with changed collagen concentration or ADP as inducer” value [3] is reported as “the same results were obtained”. For the same molecule, the “platelet aggregation 5 minutes after the injection” value ([3]; collagen 10 μg/ml as inducer) was “completely inhibited”, the “time to complete recovery of platelet aggregation activity to the level before the injection” value ([3]; collagen 10 μg/ml as inducer) was 45 to 60 min and the “increase in the perfusion pressure” value ([4]; 10 mg/dog continuously injected over 1 hour) was “the increase rate of the perfusion pressure was evidently slow”. The “increase in the perfusion pressure” value ([4]; 30 mg/dog continuously injected over 1 hour, during the injection) was “little or no increase in the perfusion pressure”, the “blood coagulation ability during the continuous injection” value [4, 9] was “approximately 0%” and the “whole blood coagulation time” value [4, 9] was “significantly prolonged”. The “effect on cell adhesion to laminin” value ([5]; laminin) was “scarcely any effect”, the “cell adhesion to the other extracellular matrix proteins” value [5, 8] was “inhibited depending on the concentration” and the “aggregation activity of platelets remaining” value ([6]; 400 μM, after the 72 hour storage) was 60-70%. For the same molecule, the “decrease in the number of platelets” value ([6]; 400 μM, storage period of 72 hours) was “little decrease in the number of platelets”, the “decrease in the aggregation activity of platelets during storage” value ([6]; dependent on peptide concentration, control decreased to 25% in 72 hours) was “the decrease in the aggregation activity was significantly inhibited” and the “decrease in the number of platelets during storage compared to the control group” value ([6]; room temperature, shaking, dependent on peptide concentration) was “significant inhibitory effect on the decrease in the number of platelets”.
In the case of GRGDSP, the “aggregation of platelets activated by ADP” value [7] is listed as “completely inhibited”.
